Results as given in patent US8604217B2, “Compound, a process for its preparation, a pharmaceutical composition, use of a compound, a method for modulating or regulating serine/threonine kinases and a serine/threonine kinases modulating agent” (Selvita S.A., priority 2009, dated 2013).
Where two headings read alike, the source gives them in different places.

Columns and labels:
p-4EBP1 (Ser65) = assay: In vitro inhibition of protein phosphorylation, Western blot in MV4-11 cells; format: cell-based, human; conditions: for IC50: Homo sapiens, MV4-11, MV411 cells, read-out: calculated cellular IC50 for biomarker inhibition, p-4EBP1 (Ser65)
Experimental: The inventors have investigated the efficacy of PIM-1 kinase inhibition by compound 20 on MV4-11 cells 4 h and 24 h after the treatment. The efficacy of PIM-1 inhibition was evaluated basing on the changes in the expression and phosphorylation levels of its downstream target proteins, using Western blot (FIG. 1). Sunitinib was used as a positive control. After densitometric quantification of the obtained results, cellular IC50 was assessed (Table 6). […] PIM-1 and tubulin protein levels were assessed as controls.

PDGFRβ(h) = PDGFRβ(h) (Homo sapiens (Human), UniProt P09619); assay: KinaseProfiler kinase panel; format: biochemical
Flt4(h) = Flt4(h) (Homo sapiens (Human), UniProt P35916); assay: KinaseProfiler kinase panel; format: biochemical
PKBβ(h) = PKBβ(h) (Homo sapiens (Human), UniProt P31751); assay: KinaseProfiler kinase panel; format: biochemical
TAK1(h) = TAK1(h) (Homo sapiens (Human), UniProt O43318); assay: KinaseProfiler kinase panel; format: biochemical
Snk(h) = Snk(h) (Homo sapiens (Human), UniProt Q9NYY3); assay: KinaseProfiler kinase panel; format: biochemical
Fes(h) = Fes(h) (Homo sapiens (Human), UniProt P07332); assay: KinaseProfiler kinase panel; format: biochemical
CK1γ1(h) = CK1γ1(h) (Homo sapiens (Human), UniProt Q9HCP0); assay: KinaseProfiler kinase panel; format: biochemical
LOK(h) = LOK(h) (Homo sapiens (Human), UniProt O94804); assay: KinaseProfiler kinase panel; format: biochemical
Lck(h) activated = Lck(h) activated (Homo sapiens (Human), UniProt P06239); assay: KinaseProfiler kinase panel; format: biochemical
SRPK1(h) = SRPK1(h) (Homo sapiens (Human), UniProt Q96SB4); assay: KinaseProfiler kinase panel; format: biochemical
MAPKAP-K3(h) = MAPKAP-K3(h) (Homo sapiens (Human), UniProt Q16644); assay: KinaseProfiler kinase panel; format: biochemical
EphA3(h) = EphA3(h) (Homo sapiens (Human), UniProt P29320); assay: KinaseProfiler kinase panel; format: biochemical
CaMKIδ(h) = CaMKIδ(h) (Homo sapiens (Human), UniProt Q8IU85); assay: KinaseProfiler kinase panel; format: biochemical
CaMKIδ(h), sequence (Q8IU85 whole entry): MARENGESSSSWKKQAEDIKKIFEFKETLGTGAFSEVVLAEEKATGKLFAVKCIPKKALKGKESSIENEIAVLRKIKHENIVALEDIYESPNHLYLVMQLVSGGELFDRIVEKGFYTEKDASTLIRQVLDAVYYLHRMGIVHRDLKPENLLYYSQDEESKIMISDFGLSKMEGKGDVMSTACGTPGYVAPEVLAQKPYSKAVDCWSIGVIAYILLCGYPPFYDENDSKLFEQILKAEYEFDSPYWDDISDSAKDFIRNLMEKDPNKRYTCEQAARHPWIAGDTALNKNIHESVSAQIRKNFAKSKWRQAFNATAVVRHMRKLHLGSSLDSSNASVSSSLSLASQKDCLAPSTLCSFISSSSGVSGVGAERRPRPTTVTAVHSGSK

CaMKIIδ(h) = CaMKIIδ(h) (Homo sapiens (Human), UniProt Q13557); assay: KinaseProfiler kinase panel; format: biochemical
EGFR(T790M)(h) = EGFR(T790M)(h) (Homo sapiens (Human), UniProt P00533, T790M); assay: KinaseProfiler kinase panel; format: biochemical
EGFR(T790M)(h), sequence (P00533 25-1210 T790M): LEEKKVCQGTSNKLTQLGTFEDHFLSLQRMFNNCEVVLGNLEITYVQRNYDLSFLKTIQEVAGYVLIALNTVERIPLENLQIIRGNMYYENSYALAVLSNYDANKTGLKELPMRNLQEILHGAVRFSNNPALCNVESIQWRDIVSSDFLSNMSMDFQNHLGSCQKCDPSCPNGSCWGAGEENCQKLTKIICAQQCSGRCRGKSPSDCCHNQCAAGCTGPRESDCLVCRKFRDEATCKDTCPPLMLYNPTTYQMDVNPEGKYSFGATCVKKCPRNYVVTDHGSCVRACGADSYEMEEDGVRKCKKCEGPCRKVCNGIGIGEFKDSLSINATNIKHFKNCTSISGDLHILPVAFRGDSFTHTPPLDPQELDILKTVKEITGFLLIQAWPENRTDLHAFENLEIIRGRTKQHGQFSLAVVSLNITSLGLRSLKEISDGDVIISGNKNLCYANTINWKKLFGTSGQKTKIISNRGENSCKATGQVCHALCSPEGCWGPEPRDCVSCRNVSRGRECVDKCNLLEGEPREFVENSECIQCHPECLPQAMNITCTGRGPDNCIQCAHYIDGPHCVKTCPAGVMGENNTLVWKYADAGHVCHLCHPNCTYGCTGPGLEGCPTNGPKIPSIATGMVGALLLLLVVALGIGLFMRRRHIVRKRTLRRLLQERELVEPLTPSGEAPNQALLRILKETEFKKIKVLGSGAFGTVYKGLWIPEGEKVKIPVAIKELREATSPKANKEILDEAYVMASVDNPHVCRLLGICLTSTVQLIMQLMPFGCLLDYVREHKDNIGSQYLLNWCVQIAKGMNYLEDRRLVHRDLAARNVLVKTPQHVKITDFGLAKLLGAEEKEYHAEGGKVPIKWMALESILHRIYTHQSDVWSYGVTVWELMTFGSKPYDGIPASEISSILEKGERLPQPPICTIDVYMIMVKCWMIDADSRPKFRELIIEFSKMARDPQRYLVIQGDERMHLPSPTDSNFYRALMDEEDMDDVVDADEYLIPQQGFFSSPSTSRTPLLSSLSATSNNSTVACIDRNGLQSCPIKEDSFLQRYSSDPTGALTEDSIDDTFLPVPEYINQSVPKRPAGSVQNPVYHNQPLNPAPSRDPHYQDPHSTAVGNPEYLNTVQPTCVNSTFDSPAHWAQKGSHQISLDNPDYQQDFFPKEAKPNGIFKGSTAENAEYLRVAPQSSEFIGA

TAO1(h) = TAO1(h) (Homo sapiens (Human), UniProt Q7L7X3); assay: KinaseProfiler kinase panel; format: biochemical
TAO1(h), sequence (Q7L7X3 whole entry): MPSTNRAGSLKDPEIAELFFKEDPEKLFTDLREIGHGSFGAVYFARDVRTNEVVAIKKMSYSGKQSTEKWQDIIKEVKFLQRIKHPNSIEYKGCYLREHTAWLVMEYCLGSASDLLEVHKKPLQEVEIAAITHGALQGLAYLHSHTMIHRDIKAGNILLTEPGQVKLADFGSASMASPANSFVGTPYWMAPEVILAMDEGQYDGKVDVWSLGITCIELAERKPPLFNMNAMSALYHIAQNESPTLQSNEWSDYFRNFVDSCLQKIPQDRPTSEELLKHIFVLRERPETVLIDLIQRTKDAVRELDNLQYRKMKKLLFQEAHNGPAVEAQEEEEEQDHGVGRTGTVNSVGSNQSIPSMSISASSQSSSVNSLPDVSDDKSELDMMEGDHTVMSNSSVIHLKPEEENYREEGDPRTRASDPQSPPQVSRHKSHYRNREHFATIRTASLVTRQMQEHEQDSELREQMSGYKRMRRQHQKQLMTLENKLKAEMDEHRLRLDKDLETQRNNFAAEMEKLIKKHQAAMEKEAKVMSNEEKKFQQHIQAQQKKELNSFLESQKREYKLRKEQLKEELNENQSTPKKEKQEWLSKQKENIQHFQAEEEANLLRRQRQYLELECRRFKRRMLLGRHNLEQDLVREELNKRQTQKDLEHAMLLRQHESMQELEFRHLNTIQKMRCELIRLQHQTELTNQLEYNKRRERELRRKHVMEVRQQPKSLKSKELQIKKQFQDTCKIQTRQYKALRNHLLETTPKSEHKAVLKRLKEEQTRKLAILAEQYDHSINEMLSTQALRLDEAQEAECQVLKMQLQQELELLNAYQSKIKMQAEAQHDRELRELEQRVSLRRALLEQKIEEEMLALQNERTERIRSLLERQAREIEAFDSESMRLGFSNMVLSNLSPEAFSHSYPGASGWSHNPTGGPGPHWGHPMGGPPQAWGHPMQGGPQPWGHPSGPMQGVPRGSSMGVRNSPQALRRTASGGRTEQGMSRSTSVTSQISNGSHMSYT

CDK1/cyclinB(h) = CDK1/cyclinB(h) (Homo sapiens (Human), UniProt P06493); assay: KinaseProfiler kinase panel; format: biochemical
CDK1/cyclinB(h), sequence (P06493 whole entry): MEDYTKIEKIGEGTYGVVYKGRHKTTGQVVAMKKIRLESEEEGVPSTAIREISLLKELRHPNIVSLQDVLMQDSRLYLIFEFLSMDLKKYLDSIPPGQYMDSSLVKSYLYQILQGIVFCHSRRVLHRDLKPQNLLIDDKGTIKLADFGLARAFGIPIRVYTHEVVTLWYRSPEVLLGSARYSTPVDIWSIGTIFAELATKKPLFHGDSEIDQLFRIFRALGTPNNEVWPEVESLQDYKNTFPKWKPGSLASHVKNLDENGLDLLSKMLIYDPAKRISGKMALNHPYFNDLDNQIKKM
CDK1/cyclinB(h), sequence (P14635 whole entry partner): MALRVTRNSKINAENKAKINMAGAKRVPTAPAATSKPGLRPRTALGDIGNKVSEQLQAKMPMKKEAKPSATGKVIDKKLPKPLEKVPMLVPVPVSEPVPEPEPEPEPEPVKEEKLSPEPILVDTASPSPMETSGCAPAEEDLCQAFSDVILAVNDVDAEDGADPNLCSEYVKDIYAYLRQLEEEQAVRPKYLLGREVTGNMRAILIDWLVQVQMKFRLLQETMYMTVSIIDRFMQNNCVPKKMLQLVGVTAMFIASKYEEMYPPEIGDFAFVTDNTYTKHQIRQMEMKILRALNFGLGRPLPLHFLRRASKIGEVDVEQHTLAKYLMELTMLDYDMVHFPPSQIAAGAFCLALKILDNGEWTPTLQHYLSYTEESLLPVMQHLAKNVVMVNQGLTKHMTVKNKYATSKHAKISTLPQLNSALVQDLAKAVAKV

EphA8(h) = EphA8(h) (Homo sapiens (Human), UniProt P29322); assay: KinaseProfiler kinase panel; format: biochemical
Abl(T315I)(h) = Abl(T315I)(h) (Homo sapiens (Human), UniProt P00519, T315I); assay: KinaseProfiler kinase panel; format: biochemical
cKit(D816H)(h) = cKit(D816H)(h) (Homo sapiens (Human), UniProt P10721, D816H); assay: KinaseProfiler kinase panel; format: biochemical
Tec(h) activated = Tec(h) activated (Homo sapiens (Human), UniProt P42680); assay: KinaseProfiler kinase panel; format: biochemical
ROCK-II(r) = ROCK-II(r) (Rattus norvegicus (Rat), UniProt Q62868); assay: KinaseProfiler kinase panel; format: biochemical
Fms(Y969C)(h) = Fms(Y969C)(h) (Homo sapiens (Human), UniProt P07333, Y969C); assay: KinaseProfiler kinase panel; format: biochemical
DRAK1(h) = DRAK1(h) (Homo sapiens (Human), UniProt Q9UEE5); assay: KinaseProfiler kinase panel; format: biochemical
TAO3(h) = TAO3(h) (Homo sapiens (Human), UniProt Q9H2K8); assay: KinaseProfiler kinase panel; format: biochemical
MAPK2(h) = MAPK2(h) (Homo sapiens (Human), UniProt P28482); assay: KinaseProfiler kinase panel; format: biochemical
MAPK2(h), sequence (P28482 whole entry): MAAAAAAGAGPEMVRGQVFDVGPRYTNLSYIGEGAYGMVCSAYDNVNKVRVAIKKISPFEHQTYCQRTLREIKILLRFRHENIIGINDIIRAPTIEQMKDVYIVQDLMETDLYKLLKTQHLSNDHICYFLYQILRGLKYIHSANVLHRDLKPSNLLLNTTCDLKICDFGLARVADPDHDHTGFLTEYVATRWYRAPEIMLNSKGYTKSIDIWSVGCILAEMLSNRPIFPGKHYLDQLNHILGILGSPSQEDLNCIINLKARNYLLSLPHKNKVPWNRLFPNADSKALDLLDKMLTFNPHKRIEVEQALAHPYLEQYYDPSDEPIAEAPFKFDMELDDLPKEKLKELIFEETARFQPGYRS

CHK2(R145W)(h) = CHK2(R145W)(h) (Homo sapiens (Human), UniProt O96017, R145W); assay: KinaseProfiler kinase panel; format: biochemical
IGF-1R(h) = IGF-1R(h) (Homo sapiens (Human), UniProt P08069); assay: KinaseProfiler kinase panel; format: biochemical
CK2α2(h) = CK2α2(h) (Homo sapiens (Human), UniProt P19784); assay: KinaseProfiler kinase panel; format: biochemical
CK2α2(h), sequence (P19784 whole entry): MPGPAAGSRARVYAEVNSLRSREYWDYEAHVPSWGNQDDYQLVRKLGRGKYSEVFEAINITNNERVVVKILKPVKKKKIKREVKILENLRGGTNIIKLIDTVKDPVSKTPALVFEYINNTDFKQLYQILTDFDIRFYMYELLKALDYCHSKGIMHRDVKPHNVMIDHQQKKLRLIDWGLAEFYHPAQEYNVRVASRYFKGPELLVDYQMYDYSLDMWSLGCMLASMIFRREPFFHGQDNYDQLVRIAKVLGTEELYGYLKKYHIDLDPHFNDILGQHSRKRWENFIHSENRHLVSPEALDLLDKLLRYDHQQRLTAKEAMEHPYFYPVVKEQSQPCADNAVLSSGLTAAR

Tie2(R849W)(h) = Tie2(R849W)(h) (Homo sapiens (Human), UniProt Q02763, R849W); assay: KinaseProfiler kinase panel; format: biochemical
Met(h) = Met(h) (Homo sapiens (Human), UniProt P08581); assay: KinaseProfiler kinase panel; format: biochemical
ASK1(h) = ASK1(h) (Homo sapiens (Human), UniProt Q99683); assay: KinaseProfiler kinase panel; format: biochemical
CDK5/p35(h) = CDK5/p35(h) (Homo sapiens (Human), UniProt Q00535); assay: KinaseProfiler kinase panel; format: biochemical
Rsk1(r) = Rsk1(r) (Rattus norvegicus (Rat), UniProt Q63531); assay: KinaseProfiler kinase panel; format: biochemical
Rsk1(r), sequence (Q63531 whole entry): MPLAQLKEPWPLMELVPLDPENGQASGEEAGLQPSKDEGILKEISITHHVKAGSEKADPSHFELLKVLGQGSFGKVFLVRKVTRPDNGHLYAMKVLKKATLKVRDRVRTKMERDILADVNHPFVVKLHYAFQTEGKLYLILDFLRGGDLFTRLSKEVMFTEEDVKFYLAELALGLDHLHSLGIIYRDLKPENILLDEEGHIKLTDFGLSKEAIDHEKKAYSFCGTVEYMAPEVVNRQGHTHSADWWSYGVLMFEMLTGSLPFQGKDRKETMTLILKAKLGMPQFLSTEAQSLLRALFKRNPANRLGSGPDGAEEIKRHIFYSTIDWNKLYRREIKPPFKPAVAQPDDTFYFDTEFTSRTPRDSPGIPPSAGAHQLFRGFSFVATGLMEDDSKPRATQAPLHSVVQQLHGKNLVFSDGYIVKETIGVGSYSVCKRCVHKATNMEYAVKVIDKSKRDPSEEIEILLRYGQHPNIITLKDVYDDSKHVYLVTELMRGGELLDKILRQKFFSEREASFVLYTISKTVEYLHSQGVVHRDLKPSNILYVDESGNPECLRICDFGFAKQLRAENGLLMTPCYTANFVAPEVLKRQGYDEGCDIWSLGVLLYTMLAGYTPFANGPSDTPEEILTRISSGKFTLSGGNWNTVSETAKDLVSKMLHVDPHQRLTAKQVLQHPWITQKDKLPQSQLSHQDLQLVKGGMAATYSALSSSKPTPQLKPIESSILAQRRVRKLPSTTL

CDK2/cyclin A = CDK2/cyclin A (Homo sapiens (Human), UniProt P24941); conditions: tested at 1 μM; cited from earlier work

For `Brc1c(Br)c(Br)c2[nH]c(N3CCNCC3)nc2c1Br` [Compound 20, 4,5,6,7-tetrabromo-2-(piperazin-1-yl)-1H-benzo[d]imidazole], the IC50 (p-4EBP1 (Ser65); 4 h treatment) was 3.13 µM, the IC50 (p-4EBP1 (Ser65); 24 h treatment) was 1.12 µM and the “inhibition of p-4EBP1(Ser65) (Western blot)” value (p-4EBP1 (Ser65); MV4-11 cells, 4 h and 24 h) was “dose- and time-dependent inhibition”.
Molecule `CCn1c(N2CCNCC2)nc2c(Br)c(Br)c(Br)c(Br)c21` [Compound 416, 4,5,6,7-tetrabromo-1-ethyl-2-(piperazin-1-yl)-1H-benzo[d]imidazole] has a remaining activity at 1 µM (PDGFRβ(h)) of 102%, a remaining activity at 1 µM (Flt4(h)) of 17% and a remaining activity at 1 µM (PKBβ(h)) of 90%. It also gave a remaining activity at 1 µM (TAK1(h)) of 52%, a remaining activity at 1 µM (Snk(h)) of 90% and a remaining activity at 1 µM (Fes(h)) of 52%. For the same molecule, the remaining activity at 1 µM (CK1γ1(h)) was 83%, the remaining activity at 1 µM (LOK(h)) was 50% and the remaining activity at 1 µM (Lck(h) activated) was 69%. It also gave a remaining activity at 1 µM (SRPK1(h)) of 106%, a remaining activity at 1 µM (MAPKAP-K3(h)) of 106% and a remaining activity at 1 µM (EphA3(h)) of 94%. The remaining activity at 1 µM (CaMKIδ(h)) was 94%, the remaining activity at 1 µM (CaMKIIδ(h)) was 28% and the remaining activity at 1 µM (EGFR(T790M)(h)) was 28%. For the same molecule, the remaining activity at 1 µM (TAO1(h)) was 6%, the remaining activity at 1 µM (CDK1/cyclinB(h)) was 7% and the remaining activity at 1 µM (EphA8(h)) was 102%. It also gave a remaining activity at 1 µM (Abl(T315I)(h)) of 92%, a remaining activity at 1 µM (cKit(D816H)(h)) of 6% and a remaining activity at 1 µM (Tec(h) activated) of 107%. For the same molecule, the remaining activity at 1 µM (ROCK-II(r)) was 71%, the remaining activity at 1 µM (Fms(Y969C)(h)) was 92% and the remaining activity at 1 µM (DRAK1(h)) was 82%. It also gave a remaining activity at 1 µM (TAO3(h)) of 14%, a remaining activity at 1 µM (MAPK2(h)) of 81% and a remaining activity at 1 µM (CHK2(R145W)(h)) of 76%. The remaining activity at 1 µM (IGF-1R(h)) was 75%, the remaining activity at 1 µM (CK2α2(h)) was 73% and the remaining activity at 1 µM (Tie2(R849W)(h)) was 101%. The remaining activity at 1 µM (Met(h)) was 81%, the remaining activity at 1 µM (ASK1(h)) was 100% and the remaining activity at 1 µM (CDK5/p35(h)) was 2%. It also gave a remaining activity at 1 µM (Rsk1(r)) of 79%.
In the case of `CN(C)c1nc2c(Br)c(Br)c(Br)c(Br)c2[nH]1` [DMAT, 2-dimethylamino-4,5,6,7-tetrabromo-1H-benzimidazole, reference compound], the “inhibition of CDK2/cyclin A activity” value (CDK2/cyclin A) is given as “do not inhibit”.
